Assay [1] relates to velvetleaf. Put plainly: Test Example 5: herbicidal effect by foliage application, plastic box (Table 20, symbol M). It counts as in vivo, velvetleaf (Abutilon theophrasti). To be noted: foliage application, 320 g/ha, evaluated three weeks after application. The method, boiled down: (§1)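 Foliar spray test: emulsion formulation diluted in water to a set application rate, sprayed onto 14-day-old plants raised in diluvial soil at 25° C to 30° C under glass. Both herbicidal effect and crop effect rated visually three weeks later.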

In assay [2] the test system is southern crabgrass. Put plainly: Test Example 5: herbicidal effect by foliage application, plastic box (Table 20, symbol F). It counts as in vivo, southern crabgrass (Digitaria ciliaris). To be noted: foliage application, 320 g/ha, evaluated three weeks after application. The method, boiled down: as §1
Assay [3] relates to Japanese bulrush. The assay is described as follows: Test Example 2: herbicidal activity, application during weed generation under submerged conditions (Table 17, symbol B). It counts as in vivo, Japanese bulrush (Schoenoplectus juncoides). To be noted: AAH 320 g/ha; application during weed generation, submerged conditions. In a few lines:
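Effect on each weed is rated three weeks post-treatment, using the same scoring criteria as the preceding test. Plants grow from mixed-sown seed in flooded alluvial soil (4 cm water) at 25° C. to 30° C., and are treated at one to two leaves with diluted emulsion dropped onto the water.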

A further assay has as its system persian speedwell. Put plainly: Test Example 5: herbicidal effect by foliage application, plastic box (Table 20, symbol R). It counts as in vivo, Persian speedwell (Veronica persica). The following applies: foliage application, 320 g/ha, evaluated three weeks after application. The method, boiled down:
as §1

The test system of a further assay is wild oat. The assay is described as follows: Test Example 5: herbicidal effect by foliage application, plastic box (Table 20, symbol I). It counts as in vivo, wild oat (Avena fatua). To be noted: foliage application, 320 g/ha, evaluated three weeks after application. In a few lines:
as §1

Assay [4] has as its system velvetleaf. The assay is described as follows: Test Example 4: herbicidal effect by soil treatment (Table 19, symbol M). It counts as in vivo, velvetleaf (Abutilon theophrasti). To be noted: 320 g/ha. The method, boiled down:
(§2)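 Step 1: sow seeds in sterilized diluvial soil, cover ~1.5 cm. Step 2: spray diluted emulsion onto soil surface at predetermined rate. Step 3: greenhouse, 25–30° C, three weeks. Step 4: grade effect on each plant by earlier criteria.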

Assay [5] relates to southern crabgrass. The assay is described as follows: Test Example 4: herbicidal effect by soil treatment (Table 19, symbol F). It counts as in vivo, southern crabgrass (Digitaria ciliaris). To be noted: 320 g/ha. In a few lines:
as §2

Assay [6] has as its system lambsquarters. The assay is described as follows: Test Example 5: herbicidal effect by foliage application, plastic box (Table 20, symbol O). It counts as in vivo, lambsquarters (Chenopodium album). The following applies: foliage application, 320 g/ha, evaluated three weeks after application. The method, boiled down: as §1
The subject of assay [7] is barnyard grass. Put plainly: Test Example 3: herbicidal effect by foliage application, Wagner pot (Table 18, symbol H). It counts as in vivo, barnyard grass (Echinochloa crus-galli). To be noted: 320 g/ha. The method, boiled down: (§3)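 Plants were sown in alluvial soil held under 0.1–0.5 cm standing water and grown 14 days in a greenhouse at 25–30 °C. An emulsifiable formulation, water-diluted to the set dose, was then sprayed onto the foliage, and effects were scored three weeks later using previously defined criteria.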

The subject of assay [8] is Japanese bulrush. Put plainly: Test Example 1: herbicidal activity, application before weed generation under submerged conditions (Table 16, symbol B). It counts as in vivo, Japanese bulrush (Schoenoplectus juncoides). To be noted: 320 g/ha applied herbicide. The method, boiled down: (§4)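 Emulsion formulation, water-diluted to set dose, was put onto the flooded surface (4 cm depth, alluvial soil) the same day weeds were sown and 2.5-leaf rice transplanted. After 3 weeks at 25-30 °C under glass, each species was rated 0 (≤5% kill) to 5 (≥90% kill).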

The test system of assay [9] is barnyard grass. The assay is described as follows: Test Example 4: herbicidal effect by soil treatment (Table 19, symbol H). It counts as in vivo, barnyard grass (Echinochloa crus-galli). To be noted: 320 g/ha. In a few lines: as §2
In another assay the test system is late watergrass. Put plainly: Test Example 1: herbicidal activity, application before weed generation under submerged conditions (Table 16, symbol A). To be noted: 320 g/ha applied herbicide. It counts as in vivo, late watergrass (Echinochloa oryzicola). The method, boiled down: as §4
In a further assay the test system is Italian ryegrass. The assay is described as follows: Test Example 5: herbicidal effect by foliage application, plastic box (Table 20, symbol K). It counts as in vivo, Italian ryegrass (Lolium multiflorum). The following applies: foliage application, 320 g/ha, evaluated three weeks after application. In a few lines: as §1
The subject of assay [10] is windgrass. Put plainly: Test Example 4: herbicidal effect by soil treatment (Table 19, symbol L). It counts as in vivo, windgrass (Apera spica-venti). The following applies: 320 g/ha. The method, boiled down: as §2
Assay [11] relates to windgrass. The assay is described as follows: Test Example 5: herbicidal effect by foliage application, plastic box (Table 20, symbol L). It counts as in vivo, windgrass (Apera spica-venti). To be noted: foliage application, 320 g/ha, evaluated three weeks after application. In a few lines:
as §1

For assay [12], the system named is lambsquarters. Put plainly: Test Example 4: herbicidal effect by soil treatment (Table 19, symbol O). It counts as in vivo, lambsquarters (Chenopodium album). To be noted: 320 g/ha. The method, boiled down: as §2
A further assay relates to Chinese sprangletop. Put plainly: Test Example 3: herbicidal effect by foliage application, Wagner pot (Table 18, symbol D). It counts as in vivo, chinese sprangletop (Leptochloa chinensis). The following applies: 320 g/ha. The method, boiled down: as §3

SMILES strings stand for the structures.

With `COCCOc1ccc(-c2sc3ccc(F)cc3c2-c2c(O)c(C)nn(C)c2=O)cc1` [2-056], in the assay on velvetleaf [1], the “herbicidal effect on M: velvetleaf” value is reported as 5 (Herbicidal rate of 90% or more (almost completely withered)). The “herbicidal effect on F: southern crabgrass” value with southern crabgrass [2] is listed as 5 (Herbicidal rate of 90% or more (almost completely withered)). Further, the “herbicidal effect rating, B: Japanese bulrush” value in the assay with Japanese bulrush [3] is 3 (Herbicidal rate of 40% or more and less than 70%). Further, the “herbicidal effect on R: persian speedwell” value in the assay on persian speedwell was 5 (Herbicidal rate of 90% or more (almost completely withered)). Besides, the “herbicidal effect on I: wild oat” value in the assay with wild oat was 4 (Herbicidal rate of 70% or more and less than 90%). Besides, the “herbicidal effect rating, M: velvetleaf” value in the assay with velvetleaf [4] is recorded as 5 (Herbicidal rate of 90% or more (almost completely withered)). Moreover, in the assay on southern crabgrass [5], the “herbicidal effect rating, F: southern crabgrass” value is reported as 5 (Herbicidal rate of 90% or more (almost completely withered)). Further, the “herbicidal effect on O: lambsquarters” value with lambsquarters [6] was 5 (Herbicidal rate of 90% or more (almost completely withered)). In addition, the “herbicidal effect on H (barnyard grass), rating 0-5” value in the assay with barnyard grass [7] is given as 5 (Herbicidal rate of 90% or more (almost completely withered)). Also, the “Herbicidal effect on B: Japanese bulrush (grade 0-5)” value in the assay with Japanese bulrush [8] was 5 (Herbicidal rate of 90% or more (almost completely withered)). In the assay with barnyard grass [9], the “herbicidal effect rating, H: barnyard grass” value was 5 (Herbicidal rate of 90% or more (almost completely withered)). Also, in the assay with late watergrass, the “Herbicidal effect on A: late watergrass (grade 0-5)” value is 3 (Herbicidal rate of 40% or more and less than 70%). Further, in the assay with Italian ryegrass, the “herbicidal effect on K: Italian ryegrass” value is 4 (Herbicidal rate of 70% or more and less than 90%). In the assay on windgrass [10], the “herbicidal effect rating, L: windgrass” value is 0 (Herbicidal rate of 5% or less (almost no effect)). Besides, the “herbicidal effect on L: windgrass” value with windgrass [11] was 4 (Herbicidal rate of 70% or more and less than 90%). In the assay with lambsquarters [12], the “herbicidal effect rating, O: lambsquarters” value was 5 (Herbicidal rate of 90% or more (almost completely withered)). Also, the “herbicidal effect on D (Chinese sprangletop), rating 0-5” value in the assay on Chinese sprangletop is 5 (Herbicidal rate of 90% or more (almost completely withered)).

Consider `Cc1nn(C)c(=O)c(-c2c(-c3ccc(OCC4CC4)cc3)sc3ccc(F)cc23)c1O` [2-060], for which the “herbicidal effect on M: velvetleaf” value in the assay with velvetleaf [1] was 4 (Herbicidal rate of 70% or more and less than 90%). Further, the “herbicidal effect on F: southern crabgrass” value in the assay on southern crabgrass [2] is 4 (Herbicidal rate of 70% or more and less than 90%). Also, in the assay with Japanese bulrush [3], the “herbicidal effect rating, B: Japanese bulrush” value was 3 (Herbicidal rate of 40% or more and less than 70%). In addition, in the assay on persian speedwell, the “herbicidal effect on R: persian speedwell” value is reported as 5 (Herbicidal rate of 90% or more (almost completely withered)). Besides, the “herbicidal effect on I: wild oat” value in the assay on wild oat is reported as 0 (Herbicidal rate of 5% or less (almost no effect)). Besides, the “herbicidal effect rating, M: velvetleaf” value with velvetleaf [4] is recorded as 0 (Herbicidal rate of 5% or less (almost no effect)). The “herbicidal effect rating, F: southern crabgrass” value in the assay with southern crabgrass [5] was 3 (Herbicidal rate of 40% or more and less than 70%). Besides, the “herbicidal effect on O: lambsquarters” value in the assay with lambsquarters [6] is 4 (Herbicidal rate of 70% or more and less than 90%). Moreover, the “herbicidal effect on H (barnyard grass), rating 0-5” value with barnyard grass [7] is 3 (Herbicidal rate of 40% or more and less than 70%). Further, in the assay on Japanese bulrush [8], the “Herbicidal effect on B: Japanese bulrush (grade 0-5)” value was 5 (Herbicidal rate of 90% or more (almost completely withered)). Also, the “herbicidal effect rating, H: barnyard grass” value in the assay with barnyard grass [9] was 3 (Herbicidal rate of 40% or more and less than 70%). Moreover, in the assay on late watergrass, the “Herbicidal effect on A: late watergrass (grade 0-5)” value is on record as 0 (Herbicidal rate of 5% or less (almost no effect)). Also, in the assay with Italian ryegrass, the “herbicidal effect on K: Italian ryegrass” value is on record as 0 (Herbicidal rate of 5% or less (almost no effect)). In the assay on windgrass [10], the “herbicidal effect rating, L: windgrass” value is given as 0 (Herbicidal rate of 5% or less (almost no effect)). Further, the “herbicidal effect on L: windgrass” value with windgrass [11] was 4 (Herbicidal rate of 70% or more and less than 90%). For the same compound, in the assay with lambsquarters [12], the “herbicidal effect rating, O: lambsquarters” value was 4 (Herbicidal rate of 70% or more and less than 90%). For the same compound, the “herbicidal effect on D (Chinese sprangletop), rating 0-5” value with Chinese sprangletop is 3 (Herbicidal rate of 40% or more and less than 70%).
